We go through 2 molecules from US9079970B2, “Methods and compositions for specific modulation of MCL-1” (Dana Farber Cancer Institute, Inc., priority 2008, dated 2015).

In experiment [1] the target is T1, Mcl-1 ΔNΔC (Homo sapiens, UniProt Q07820).
T1 construct: GST (N, cleaved yes); made in house; host or cells: Escherichia coli BL21 (DE3), pGEX-4T
Put plainly: Fluorescence polarization direct binding of FITC-SAHBs to MCL-1ΔNΔC. The settings on record: FPA. The procedure:
(§1) Binding assays were performed as previously described (Pitter et al., Methods Enzymol 446, 387 (2008). Briefly, FITC-SAHB (50 nM) was added to serial dilutions of FPLC-purified recombinant protein in binding buffer (50 mM Tris, 100 mM NaCl, pH 8.0). For competition assays, serial dilutions of acetylated MCL-1 SAHBs were mixed with FITC-BAK SAHB (25 nM), followed by addition of MCL-1ΔNΔC (100 nM) diluted in binding buffer (50 mM Tris, 100 mM NaCl, pH 8.0). Multiwell plates were incubated in the dark at room temperature until equilibrium was reached and fluorescence polarization (mP units) was measured by microplate reader (SpectraMax, Molecular Devices). For direct binding experiments, dissociation constants (KD) were calculated by nonlinear regression analysis of dose-response curves using Prism software (Graphpad). For competition experiments, Ki values were determined by nonlinear regression analysis of dose-response curves using a one-site competition model.
To measure the binding activity of SAHBs for MCL-1, fluorescence polarization binding assays were performed (FIG. 8). […] Fluorescence polarization was measured on a BMG POLARstar Optima or Spectramax and dissociation constants determined by nonlinear regression analysis using Prism software 4.0 (Graphpad) (FIG. 8). […]
On the technique in general: Fluorescence polarisation rises when a labelled molecule tumbles more slowly, as on binding a larger partner.

In another experiment the target is recombinant BCL-XLΔC (Homo sapiens, UniProt Q07817). Briefly: Fluorescence polarization direct binding of FITC-SAHBs to BCL-XLΔC. The following applies: FPA. Here is the method: as §1
Recombinant carboxy-terminal deleted anti-apoptotic proteins were expressed using the pGEX-4T vector, and purified as described for rMCL-1. The purified proteins were incubated with FITC-SAHBs, and binding affinities were analyzed by fluorescence polarization assay as described above. […] Optionally, design and optimization of tailored SAHB compounds for anti-apoptotic targeting also employed computational modeling.

Experiment [2] concerns the target T1, Mcl-1 ΔNΔC. Put plainly: MCL-1 Specific Binders | Mcl-1 ΔNΔC. The source says: Table printed on a drawing sheet, FIGURE 9 A
Head of the field: MCL-1 Specific Binders | Mcl-1 ΔNΔC
(A) illustrates a table of KD values for MCL-1-specific and pan-anti-apoptotic binding SAHBs.
First copying reader's note: KD values with their ± error in the same cell; each column is one anti-apoptotic target protein.
Where the first naming reader finds the target: head: Mcl-1 ΔNΔC

T1 sequence (Q07820 172-327, stated change not applied): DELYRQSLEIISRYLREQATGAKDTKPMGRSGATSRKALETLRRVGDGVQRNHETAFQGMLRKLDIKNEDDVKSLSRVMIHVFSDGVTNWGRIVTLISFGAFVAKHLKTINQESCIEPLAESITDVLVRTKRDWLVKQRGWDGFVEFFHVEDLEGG
recombinant BCL-XLΔC, sequence (Q07817 1-209, stated change not applied): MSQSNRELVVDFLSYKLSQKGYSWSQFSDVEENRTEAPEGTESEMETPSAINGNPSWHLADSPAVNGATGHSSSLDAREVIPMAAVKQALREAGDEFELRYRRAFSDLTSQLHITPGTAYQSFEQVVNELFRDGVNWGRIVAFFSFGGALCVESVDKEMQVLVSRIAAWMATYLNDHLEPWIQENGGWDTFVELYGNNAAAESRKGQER

With `CC(C)C[C@H](NC(=O)[C@H](C)NC(=O)[C@@H](N)CCCCN)C(=O)N[C@@H](CCC(=O)O)C(=O)N[C@H](C(=O)N[C@@H](CC(C)C)C(=O)N[C@@H](CCCNC(=N)N)C(=O)N[C@@]1(C)CCCC=CCCC[C@@](C)(C(=O)N[C@@H](Cc2ccccc2)C(=O)N[C@@H](CCC(N)=O)C(=O)N[C@@H](CCCNC(=N)N)C(=O)N[C@@H](CC(N)=O)C(=O)N[C@@H](Cc2c[nH]cn2)C(=O)N[C@@H](CCC(=O)O)C(=O)N[C@H](C(=O)N[C@@H](C)C(=O)N[C@@H](Cc2ccccc2)C(N)=O)[C@@H](C)O)NC(=O)[C@H](CC(=O)O)NC(=O)CNC(=O)[C@H](C(C)C)NC1=O)[C@@H](C)O` [MCL-1 SAHBA V220F], at Mcl-1 ΔNΔC [1], the “MCL-1ΔNΔC binding activity” value is “binds to both MCL-1 and BCL-XL”. Also, the “BCL-XL binding” value on recombinant BCL-XLΔC was “binds to both MCL-1 and BCL-XL”.

Consider LEVESXTQLXRFGDKLNFRQKL [NOXA SAHBB], for which binding with Mcl-1 ΔNΔC [2] was put at a Kd of 109 ± 32 nM.
